{
  "source": "patent US10111822B2",
  "about": "“External dermal composition for anti-ageing and method for producing the same” (Hayashibara Co., Ltd., priority 2012, dated 2018)",
  "assay_type_in_all_cases": "cell-based, human",
  "key": {"cornified envelope (CE)": {"test_system": "cornified envelope (CE)", "assay": "Production of cornified envelope (CE) in NHEK cells", "conditions": "5 days, control 0.63 ± 0.07", "protocol": "The following experiment was conducted to examine the effect of ascorbic acid 2-glucoside on the production of CE in a keratinous layer. As a model for typical normal human epidermal cells, normal human epidermal keratinocytes from neonatal foreskin, commercialized by Kurabo Industries Ltd., Osaka, Japan, and abbreviated as “NHEK cells”, hereinafter, were suspended in EpiLife medium (pH 7.4), commercialized by Invitrogen Corporation, Calif., USA, and called “EpiLife medium”, hereinafter, inoculated to 12-well microplates at a cell density of 1×10^5 cells/well, and cultured under the conditions of 37° C. and 5% v/v CO2 overnight. Thereafter, “AA2G”, a product name of a particulate composition containing anhydrous crystalline ascorbic acid 2-glucoside, commercialized by Hayashibara Co., Ltd., Okayama, Japan, was added to each well to give a final concentration of 0.5 or 1 mM, or, as a positive control, CaCl2 was added to each well to give a final concentration of 1 mM; and the cells in each well were cultured at 37° C. for five days while replacing the medium in each well with a fresh preparation of EpiLife medium having the above-identified concentration of ascorbic acid 2-glucoside or CaCl2. Assay for intracellular CE content was carried out in accordance with Tatsuya Hasegawa et al., “Lipids”, Vol. 46, pp. 529 to 535, 2011. After completion of the culture, the culture supernatant in each well was immediately removed, followed by detaching and extracting the cells adhered to the wall of each well by means of pipetting with phosphate buffered saline (PBS, pH 7.4) containing 2% w/v sodium dodecyl sulfate (SDS), and collecting insoluble fractions by centrifugation at 15,000 rpm for 10 min. […] The measured values were regarded as CE production levels. […]"}, "occludin": {"test_system": "occludin", "assay": "TJ-related protein occludin in NHEK cells (Western)", "conditions": "3 days, CaCl2 positive control = 100%, no addition 63%", "protocol": "The following experiment was conducted to examine the effect of ascorbic acid 2-glucoside on the production of TJ-related proteins that constitute cell-cell adhesion structures by focusing on occludin and ZO-1 that are focused on as TJ-related proteins known to exist in a granular layer of epidermis: As a model for typical normal human epidermal cells, NHEK cells were suspended in EpiLife medium (pH 7.4); inoculated to 12-well microplates at a cell density of 1×10^5 cells/well; cultured overnight under the conditions of 37° C. and 5% v/v CO2; and further cultured for three days under the conditions of 37° C. and 5% v/v CO2 after adding either CaCl2 as a positive control to each well to give a final concentration of 0.5 mM, or “AA2G”, a product name of a particulate composition containing anhydrous crystalline ascorbic acid 2-glucoside, commercialized by Hayashibara Co., Ltd., Okayama, Japan, to give a final concentration of 0.5 or 1 mM. […] A sample of 20 μg protein for each lane per each cell extract in respective wells was applied to sodium dodecyl sulfate polyacrylamide gel electrophoresis (SDS-PAGE) with 10% w/v SDS containing DTT, followed by assaying the concentration of occludin or ZO-1 in each cell extract with “Luminate Western HRP Substrates”, a product name of a premixed, ready-to-use chemiluminescent detection reagent using an internal standard “α-Tubulin”, commercialized by Merck KGaA, Darmstadt, Germany, wherein there were used “F-11”, a product name of an anti-occludin mouse monoclonal antibody, commercialized by Santa Cruz Biotechnology, Inc., Texas, USA, or “ZO1-1A12”, a product name of a ZO-1 mouse monoclonal antibody, commercialized by Invitrogen Corporation, Calif., USA, was used as a first antibody; and “PO447”, a product name of a horseradish peroxidase (HRPO) labeled anti-mouse IgG, commercialized by DAKO Japan Inc., Tokyo, Japan, or “PO448”, a product name of an HRPO-labeled anti-rabbit IgG, commercialized by DAKO Japan Inc., Tokyo, Japan, as a secondary antibody. […]"}, "glutathione": {"test_system": "glutathione", "assay": "Production level of glutathione in NHEK cells", "conditions": "24 h, control = 100%", "protocol": "Continuously-cultivated NHEK cells in EpiLife medium were collected, resuspended in EpiLife medium, inoculated to culture plates with 10 cm in diameter in an amount of 1×10^6 cells/10 mL/plate, and cultured for 24 hours. Thereafter, each culture supernatant was removed by sucking, and any of the test solutions was added to the remaining cells in a volume of 10 mL/plate, followed by culturing the cells for another 24 hours. As a control, cells were added with only D-MEM medium in an amount of 10 mL/plate and cultured for 24 hours. Each culture supernatant was removed from each plate, then ice-chilled Dulbecco's PBS (−), commercialized by Nissui Pharmaceutical Co., Ltd., Tokyo, Japan, was added to rinse the remaining cells, which were then collected with a scraper. Glutathione was quantified on “Glutathione Assay Kit”, a product name of glutathione assay kit commercialzied by BioVision, Inc., San Francisco, USA. In this experiment, the control and test solutions in respective three plates were assayed for glutathione production level for each plate and averaged for obtaining the glutathione production level of each solution. A 5% v/v CO2 incubator was used for culturing NHEK cells in any case. Relative values of test samples were determined with the proviso that the production levels of reduced glutathione and total glutathione in NHEK cells that had been cultured with only EpiLife medium were respectively regarded as 100%, and the results are in Table 5."}},
  "data": [
    {"smiles": "O=C1O[C@H]([C@@H](O)CO)C(O)=C1O[C@H]1O[C@H](CO)[C@@H](O)[C@H](O)[C@H]1O", "note": "[ascorbic acid 2-glucoside, 2-O-α-D-glucosyl-L-ascorbic acid]", "values": [
      {"measurement": "OD310nm Value (CE Production level)", "setting": "cornified envelope (CE); 0.5 mM", "value": "0.78 ± 0.05"},
      {"measurement": "OD310nm Value (CE Production level)", "setting": "cornified envelope (CE); 1 mM", "value": "1.04 ± 0.11"},
      {"measurement": "Occludin concentration in cell extract", "setting": "occludin; 0.5 mM", "value": 78, "unit": "%"},
      {"measurement": "Occludin concentration in cell extract", "setting": "occludin; 1 mM", "value": 85, "unit": "%"},
      {"measurement": "Reduced glutathione", "setting": "glutathione; 0.5 mM", "value": 106, "unit": "%"},
      {"measurement": "Total glutathione", "setting": "glutathione; 0.5 mM", "value": 106, "unit": "%"},
      {"measurement": "Reduced glutathione", "setting": "glutathione; 1.0 mM", "value": 111, "unit": "%"},
      {"measurement": "Total glutathione", "setting": "glutathione; 1.0 mM", "value": 111, "unit": "%"},
      {"measurement": "Reduced glutathione", "setting": "glutathione; 2.0 mM", "value": 117, "unit": "%"},
      {"measurement": "Total glutathione", "setting": "glutathione; 2.0 mM", "value": 117, "unit": "%"}
    ]}
  ]
}
